Measured values published in patent US20020026053A1, “Novel 3-(substituted) -2- indolinones compounds and use thereof as inhibitors of protein kinase activity” (priority 1997, published 2002).

Biological target: T1, Met receptor (EGFR/Met chimeric cells, EMR) (Homo sapiens, UniProt P08581)
T1 construct: expressed in transfected cells; the other entry of the earlier key: EGFR (P00533, Epidermal growth factor receptor)
Test: Met Autophosphorylation Assay
Assay type: biochemical
Details: protocol P.130
How it was run: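 Transiently transfected EGFR/Met chimeric (EMR) cells were lysed in HNTG with 1 mM PMSF. Met was captured on plates coated with goat anti-rabbit IgG, then rabbit anti-Met (C-28), using 90 μg lysate/100 μl for 60 min at room temperature. Phosphotyrosine was read by ELISA.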

T1 sequence (P08581 with tags, fused parts or gaps): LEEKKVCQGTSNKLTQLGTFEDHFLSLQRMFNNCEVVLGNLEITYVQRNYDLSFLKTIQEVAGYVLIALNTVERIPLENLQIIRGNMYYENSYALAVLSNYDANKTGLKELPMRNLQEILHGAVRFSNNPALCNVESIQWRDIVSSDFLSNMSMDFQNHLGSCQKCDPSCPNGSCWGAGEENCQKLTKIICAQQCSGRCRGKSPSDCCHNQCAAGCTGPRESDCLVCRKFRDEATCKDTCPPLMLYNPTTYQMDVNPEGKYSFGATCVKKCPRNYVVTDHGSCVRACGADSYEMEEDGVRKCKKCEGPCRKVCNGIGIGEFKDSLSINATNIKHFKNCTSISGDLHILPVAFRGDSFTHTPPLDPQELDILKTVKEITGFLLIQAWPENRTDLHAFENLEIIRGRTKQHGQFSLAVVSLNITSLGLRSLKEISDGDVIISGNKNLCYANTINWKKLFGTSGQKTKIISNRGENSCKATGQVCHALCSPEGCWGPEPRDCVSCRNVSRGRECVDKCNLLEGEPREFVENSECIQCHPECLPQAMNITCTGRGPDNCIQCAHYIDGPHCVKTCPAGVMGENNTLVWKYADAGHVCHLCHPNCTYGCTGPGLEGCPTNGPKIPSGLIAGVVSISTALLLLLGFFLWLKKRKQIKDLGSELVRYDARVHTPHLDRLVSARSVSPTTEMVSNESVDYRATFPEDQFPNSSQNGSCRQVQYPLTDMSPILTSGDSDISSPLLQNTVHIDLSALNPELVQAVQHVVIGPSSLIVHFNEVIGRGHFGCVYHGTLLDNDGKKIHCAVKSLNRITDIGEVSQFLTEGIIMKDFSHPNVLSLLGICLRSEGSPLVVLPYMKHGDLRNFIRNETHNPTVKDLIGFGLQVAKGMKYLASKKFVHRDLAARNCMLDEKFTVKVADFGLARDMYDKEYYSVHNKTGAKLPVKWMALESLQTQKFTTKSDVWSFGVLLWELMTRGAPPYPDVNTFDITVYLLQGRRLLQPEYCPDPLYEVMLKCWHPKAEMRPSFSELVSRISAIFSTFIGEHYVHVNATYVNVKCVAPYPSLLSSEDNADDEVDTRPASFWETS

| SMILES | Met Kinase % Inhibition (P.130) [%] |
| --- | --- |
| Cc1c(Br)cc(Br)c2c1C(=Cc1cccc(Oc3ccc(Cl)c(Cl)c3)c1)C(=O)N2 [10738/H03] | 29.5 |
| COc1ccc(C=C2C(=O)Nc3c(Br)cc(Br)c(C)c32)cc1O [10738/H04] | 72.9 |
| Cc1c(Br)cc(Br)c2c1C(=Cc1cc(O)ccc1[N+](=O)[O-])C(=O)N2 [10738/H05] | 73.6 |
| Cc1c(Br)cc(Br)c2c1C(=Cc1cccc(O)c1O)C(=O)N2 [10738/H06] | 93.8 |
